Columns and labels:
[1] = system: phospho-SRSF6 in MDA-MB-468 cells; assay: Inhibition of phospho-SRSF6 levels in MDA-MB-468 cells (Western blot); type: cell-based; details: Homo sapiens, 2 hours, compared to DMSO control; for inhibition at 0.01 µM: 10 nM, read-out: >50% p-SRSF6 reduction at 10 nM; for inhibition at 0.1 µM: 100 nM, read-out: >50% p-SRSF6 reduction at 100 nM
Description: FIG. 1: FIG. 1 provides a representative Western blot showing reduction of phosphorylated-SRSF6 (P—SRSF6) in MDA-MB 468 cells by compounds of the invention. GAPDH was probed for by Western blotting to control for equal protein loading and for normalization of samples. The numbers below the blots show percent inhibition of the P—SRSF6 signal at 100 nM (A) or 10 nM (B) compared to DMSO control.
Assessment of Inhibition of Phospho-SRSF6 Levels in MDA-MB-468 Cells
MDA-MB-468 cells (ATCC, HTB-132) were cultured in DMEM (BioConcept cat. no. 1-26F03) supplemented with 10% FBS (Sigma cat. no. F9665), […] (Sigma cat. no. S8636), 1% Penicillin-Streptomycin (BioConcept cat. no. 4-01FOO-H). When cells reached a density of 70% o in 6-well plates (TPP cat. no. 92006), they were treated either with the test compound vehicle DMSO, or with experimental compounds at a final concentration of either 10 or 100 nM for 2 hours. Thereafter, the culture medium was removed and cells were collected by scraping in Lysis Buffer (20 mM Tris HCl pH7.5, 150 mM NaCl, 1 mM EGTA, 1 mM EDTA, 1% o Triton and 1% o NP-40) containing protease and phosphatase inhibitors (Halt™ Protease&Phosphatase inhibitor cocktail 100× ThermioScientific cat. no. 1861281) and 1 mM PMSF (Fluka cat. no. 93482). Cleared lysates were stored in Eppendorfftubes at −80° C. until use, and protein concentration in lysates was determined using Pierce 660 nm Protein Assay Reagent (ThermioScientific cat. no. 22660). 20 μg proteins were diluted in 4× Laemmli buffer (Biorad cat. no. 161-0747) containing 10% beta-mercaptoethanol, separated by SDS-PAGE using 10% gels, and then transferred to PVDF membranes (Trans Blot Turbo Transfer Pack BioRad cat. no. 1704156) by Trans-Blot® Turbo™ System semidry blotting methodology (BioRad). Primary antibodies were incubated in TBS-0.1% Tween-20 buffer containing 3% BSA Bovine Albumin Fr.V (Millipore cat. no. 81-053-3) overnight at 4° C. The following primary antibodies were used: Mouse anti-phosphoepitope SR proteins clone 1H4 (Millipore cat. no. MABE50) diluted 1:5000, and rabbit anti-GAPDH clone 14C10 (Cell Signaling cat. no. 2118S) to control for equal protein loading, diluted 1:2000. HRP-conjugated secondary antibodies were incubated one hour at room temperature diluted 1:5000 in TBS-0.1% Tween-20 buffer containing […] nonfat-dried bovine milk (Sigma cat. no. M7409). The following secondary antibodies were used: Goat anti-mouse-HRP (Jackson cat. no. 115-035-146) and goat anti-rabbit-HRP (Jackson cat. no. 111-035-144). Membranes were incubated with ECL Prime Western Blot Detection Reagent (Amersham cat. no. RPN2236) to detect specific signals using Fusion SOLO S device (Vilber Lourmat). Pixel intensity of the phopsho-SRSF6 (MW 55 kDa in reference to markers) and GAPDH (MW 37 kDa) signals in the Western blots were determined using Evolution-Capt image analysis software (v17.01, Vilber Lourmat). DMSO control was used to set the phospho-SRSF6 signal at baseline, phospho-SRSF6 signals for each sample were normalized by the respective GAPDH signals and percent intensity of P—SRSF6 signal at 10 and 100 nM compound compared to DMSO control was calculated (see FIG. 1).

[2] = target: T1, recombinant human CLK3 (Homo sapiens, UniProt P49761); assay: CLK3 kinase assay (LANCE Ultra); type: biochemical; details: CLK3 0.5 nM, ATP 300 μM, 3 hours at 30° C.
T1 construct: purchased Thermo Fisher Scientific PV3826
T1 sequence (P49761 whole entry): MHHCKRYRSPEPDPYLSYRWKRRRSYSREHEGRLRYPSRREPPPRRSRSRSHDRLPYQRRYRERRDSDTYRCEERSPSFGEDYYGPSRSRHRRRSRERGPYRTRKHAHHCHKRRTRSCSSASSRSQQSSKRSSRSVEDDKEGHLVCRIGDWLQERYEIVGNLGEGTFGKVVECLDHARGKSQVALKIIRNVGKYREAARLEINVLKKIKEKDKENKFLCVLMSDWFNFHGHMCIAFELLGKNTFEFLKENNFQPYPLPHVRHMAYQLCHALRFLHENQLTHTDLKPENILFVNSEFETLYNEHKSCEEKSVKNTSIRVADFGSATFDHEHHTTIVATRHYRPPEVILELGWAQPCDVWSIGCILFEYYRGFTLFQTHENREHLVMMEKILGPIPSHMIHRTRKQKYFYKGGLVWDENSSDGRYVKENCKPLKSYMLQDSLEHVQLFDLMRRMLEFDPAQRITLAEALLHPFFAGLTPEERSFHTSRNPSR
Outline: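 Recombinant human CLK3 (0.5 nM) with ULight-CREBtide (50 nM) and 300 μM ATP, 3 h at 30 °C in kinase buffer; EDTA stop, then Eu-anti-phospho-CREB antibody (2 nM, 1 h RT), TR-FRET read at 665/620 nm. Inhibition normalized to DMSO and no-ATP wells; IC50 from 4-parameter fit, ten 1:3 concentrations in duplicate.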

[3] = system: MDA-MB-231 cells; assay: MDA-MB-231 proliferation assay; type: cell-based; details: YO-PRO-1 Iodide readout
Outline: (§1)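 Cells seeded at 750 per well, treated next day for 72 h at 37 °C with 0.5% final DMSO. Cell number read by YO-PRO-1 fluorescence after lysis, normalized to DMSO (100%) and time-zero cells (0%). GI50 from 4-parameter logistic fit, maximum constrained to 100%.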

[4] = system: CAL-51 cells; assay: CAL-51 proliferation assay; type: cell-based; details: YO-PRO-1 Iodide readout
Outline: as §1

Structure (SMILES) | inhibition at 0.01 µM [1] [%] | inhibition at 0.1 µM [1] [%] | IC50 [2] [nM] | GI50 ([3]; Homo sapiens, MDA-MB-231, 72 h) [nM] | GI50 ([4]; Homo sapiens, CAL-51, 72 h) [nM] | GI50 ([3]; 72 hours) [nM] | GI50 ([4]; 72 hours) [nM]
CC1(C)Cc2c(ccc(O[C@H]3CC[C@H](N)CC3)c2-n2cccc2)-c2ncnc(N)c21 [Example 17, 8-(trans-4-aminocyclohexoxy)-5,5-dimethyl-7-pyrrol-1-yl-6H-benzo[h]quinazolin-4-amine] | < 50 | > 50 | < 30 | < 100 | < 100 | – | –
CN(CCO)c1c(O[C@H]2CC[C@H](N)CC2)ccc2c1CC(C)(C)c1c(N)ncnc1-2 [Example 12, 2-[[4-amino-8-(trans-4-aminocyclohexoxy)-5,5-dimethyl-6H-benzo[h]quinazolin-7-yl]-methyl-amino]ethanol] | < 50 | > 50 | < 30 | < 100 | < 100 | – | –
CC1(C)Cc2c(ccc(O[C@H]3CC[C@H](N)CC3)c2N2CCC(O)C2)-c2ncnc(N)c21 (single isomer, unassigned) [Example 16, 1-[4-amino-8-(trans-4-aminocyclohexoxy)-5,5-dimethyl-6H-benzo[h]quinazolin-7-yl]pyrrolidin-3-ol] | > 50 | > 50 | < 30 | – | – | < 100 | < 100
CN(C)c1c(O[C@H]2CC[C@H](N)CC2)ccc2c1CC(C)(C)c1c(N)ncnc1-2 [Example 20, 8-(trans-4-aminocyclohexoxy)-N7,N7,5,5-tetramethyl-6H-benzo[h]quinazoline-4,7-diamine] | > 50 | > 50 | < 30 | < 100 | < 100 | – | –
CN(CC(C)(C)O)c1c(O[C@H]2CC[C@H](N)CC2)ccc2c1CC(C)(C)c1c(N)ncnc1-2 [Example 40, 1-[[4-amino-8-(trans-4-aminocyclohexoxy)-5,5-dimethyl-6H-benzo[h]quinazolin-7-yl]-methyl-amino]-2-methyl-propan-2-ol] | > 50 | > 50 | 30 to 100 | 100 to 2000 | < 100 | – | –
CN(CC#N)c1c(O[C@H]2CC[C@@H](N)CC2)ccc2c1CC(C)(C)c1c(N)ncnc1-2 [Example 30, 2-[[4-amino-8-(cis-4-aminocyclohexoxy)-5,5-dimethyl-6H-benzo[h]quinazolin-7-yl]-methyl-amino]acetonitrile] | > 50 | > 50 | < 30 | < 100 | < 100 | – | –
Nc1ncnc2c1C1(CCCC1)Cc1c-2ccc(O[C@H]2CC[C@H](N)CC2)c1N [Example 37, 8-(trans-4-aminocyclohexoxy)spiro[6H-benzo[h]quinazoline-5,1′-cyclopentane]-4,7-diamine] | > 50 | > 50 | 30 to 100 | 100 to 2000 | < 100 | – | –
CCNc1c(O[C@H]2CC[C@H](N)CC2)ccc2c1CC(C)(C)c1c(N)ncnc1-2 [Example 8, 8-(trans-4-aminocyclohexoxy)-N7-ethyl-5,5-dimethyl-6H-benzo[h]quinazoline-4,7-diamine] | < 50 | > 50 | 30 to 100 | 100 to 2000 | < 100 | – | –
CCN(CC)c1c(O[C@H]2CC[C@H](N)CC2)ccc2c1CC(C)(C)c1c(N)ncnc1-2 [Example 7, 8-(trans-4-aminocyclohexoxy)-N7,N7-diethyl-5,5-dimethyl-6H-benzo[h]quinazoline-4,7-diamine] | > 50 | > 50 | < 30 | 100 to 2000 | 100 to 2000 | – | –
CN(CC(C)(C)C(N)=O)c1c(O[C@H]2CC[C@H](N)CC2)ccc2c1CC(C)(C)c1c(N)ncnc1-2 [Example 88, 3-[[4-amino-8-(trans-4-aminocyclohexoxy)-5,5-dimethyl-6H-benzo[h]quinazolin-7-yl]-methyl-amino]-2,2-dimethyl-propanamide] | – | – | 30 to 100 | > 2000 | 100 to 2000 | – | –
CC1(C)Cc2c(ccc(O[C@H]3CC[C@H](N)CC3)c2N2CC=CC2=O)-c2ncnc(N)c21 [Example 56, 1-[4-amino-8-(trans-4-aminocyclohexoxy)-5,5-dimethyl-6H-benzo[h]quinazolin-7-yl]-2H-pyrrol-5-one] | – | – | 101 to 1000 | > 2000 | > 2000 | – | –
CC1(C)C(=O)c2c(ccc(O[C@H]3CC[C@H](N)CC3)c2N)-c2ncnc(N)c21 [Example 34, 4,7-diamino-8-(trans-4-aminocyclohexoxy)-5,5-dimethyl-benzo[h]quinazolin-6-one] | – | – | 101 to 1000 | 100 to 2000 | 100 to 2000 | – | –
CN(CCC#N)c1c(O[C@H]2CC[C@H](N)CC2)ccc2c1CC(C)(C)c1c(N)ncnc1-2 [Example 46, 3-[[4-amino-8-(trans-4-aminocyclohexoxy)-5,5-dimethyl-6H-benzo[h]quinazolin-7-yl]-methyl-amino]propanenitrile] | > 50 | > 50 | < 30 | < 100 | < 100 | – | –
CN(CC(C)(C)CO)c1c(O[C@H]2CC[C@H](N)CC2)ccc2c1CC(C)(C)c1c(N)ncnc1-2 [Example 110, 3-[[4-amino-8-(trans-4-aminocyclohexoxy)-5,5-dimethyl-6H-benzo[h]quinazolin-7-yl]-methyl-amino]-2,2-dimethyl-propan-1-ol] | – | – | < 30 | 100 to 2000 | < 100 | – | –
CN(CC(C)(C)C#N)c1c(O[C@H]2CC[C@H](N)CC2)ccc2c1CC(C)(C)c1c(N)ncnc1-2 [Example 91, 3-[[4-amino-8-(trans-4-aminocyclohexoxy)-5,5-dimethyl-6H-benzo[h]quinazolin-7-yl]-methyl-amino]-2,2-dimethyl-propanenitrile] | – | – | < 30 | < 100 | < 100 | – | –

Reference: US20260159486A1, “BENZO[H]QUINAZOLINE-4-AMINE DERIVATIVES FOR THE TREATMENT OF CANCER” (Redona Therapeutics, Inc., priority 2021, published 2026)
